Converted amounts (≈) assume the structure as drawn.
Key:
Salmonella typhi = assay: Antibacterial activity against beta-lactamase producing Salmonella typhi H901 after 18 hrs by agar dilution assay; format: functional, Salmonella enterica subsp. enterica serovar Typhi; details: Salmonella enterica, H901, 18 h
Proteus mirabilis = assay: Antibacterial activity against beta-lactamase producing Proteus mirabilis 09-1 after 18 hrs by agar dilution assay; format: functional; details: 09-1, 18 h
Proteus vulgaris = assay: Antibacterial activity against beta-lactamase producing Proteus vulgaris 29905 after 18 hrs by agar dilution assay; format: functional; details: Proteus vulgaris, 29905, 18 h
Providencia rettgeri = assay: Antibacterial activity against Providencia rettgeri 31052 after 18 hrs by agar dilution assay; format: functional; details: Providencia rettgeri, 31052, 18 h
Morganella morganii = assay: Antibacterial activity against beta-lactamase producing Morganella morganii 25830 after 18 hrs by agar dilution assay; format: functional; details: Morganella morganii, 25830, 18 h
Serratia marcescens = assay: Antibacterial activity against beta-lactamase producing Serratia marcescens 41002 after 18 hrs by agar dilution assay; format: functional; details: Serratia marcescens, 41002, 18 h
Klebsiella aerogenes = assay: Antibacterial activity against beta-lactamase producing Enterobacter aerogenes 45102 after 18 hrs by agar dilution assay; format: functional; details: Klebsiella aerogenes, 45102, 18 h
Enterobacter cloacae = assay: Antibacterial activity against beta-lactamase producing Enterobacter cloacae 45301 after 18 hrs by agar dilution assay; format: functional; details: Enterobacter cloacae, 45301, 18 h
Klebsiella pneumoniae [1] = assay: Antibacterial activity against ESBL negative Klebsiella pneumoniae 7 after 18 hrs by agar dilution assay; format: functional; details: Klebsiella pneumoniae, 7, 18 h
Klebsiella pneumoniae [2] = assay: Antibacterial activity against NDM-1 positive Klebsiella pneumoniae BAA-2146 after 18 hrs by agar dilution assay; format: functional; details: BAA-2146, 18 h
Klebsiella pneumoniae [3] = assay: Antibacterial activity against ESBL negative Klebsiella pneumoniae 09-8 after 18 hrs by agar dilution assay; format: functional; details: 09-8, 18 h
Pseudomonas aeruginosa [4] = assay: Antibacterial activity against BL positive Pseudomonas aeruginosa 09-14 after 18 hrs by agar dilution assay; format: functional; details: 09-14, 18 h
Pseudomonas aeruginosa [5] = assay: Antibacterial activity against BL positive Pseudomonas aeruginosa PAO1 after 18 hrs by agar dilution assay; format: functional; details: PAO1, 18 h
Pseudomonas aeruginosa [6] = assay: Antibacterial activity against BL positive Pseudomonas aeruginosa 27853 after 18 hrs by agar dilution assay; format: functional; details: Pseudomonas aeruginosa, 27853, 18 h
Klebsiella pneumoniae [7] = assay: Antibacterial activity against ESBL positive Klebsiella pneumoniae 09-25 after 18 hrs by agar dilution assay; format: functional; details: 09-25, 18 h
Klebsiella pneumoniae [8] = assay: Antibacterial activity against ESBL positive Klebsiella pneumoniae 700603 after 18 hrs by agar dilution assay; format: functional; details: Klebsiella pneumoniae, 700603, 18 h
Escherichia coli [9] = assay: Antibacterial activity against ESBL negative Escherichia coli 09-20 after 18 hrs by agar dilution assay; format: functional; details: 09-20, 18 h
Escherichia coli [10] = assay: Antibacterial activity against ESBL positive Escherichia coli 09-1 after 18 hrs by agar dilution assay; format: functional; details: 09-1, 18 h
Escherichia coli [11] = assay: Antibacterial activity against ESBL negative Escherichia coli 1515 after 18 hrs by agar dilution assay; format: functional; details: Escherichia coli, 1515, 18 h
Escherichia coli [12] = assay: Antibacterial activity against ESBL negative Escherichia coli 25922 after 18 hrs by agar dilution assay; format: functional; details: Escherichia coli, 25922, 18 h
Citrobacter freundii = assay: Antibacterial activity against beta-lactamase producing Citrobacter freundii 43864 after 18 hrs by agar dilution assay; format: functional; details: Citrobacter freundii, 43864, 18 h

| Structure (SMILES) | MIC (Salmonella typhi) | MIC (Proteus mirabilis) | MIC (Proteus vulgaris) | MIC (Providencia rettgeri) | MIC (Morganella morganii) | MIC (Serratia marcescens) | MIC (Klebsiella aerogenes) | MIC (Klebsiella pneumoniae [1]) | MIC (Klebsiella pneumoniae [2]) | MIC (Klebsiella pneumoniae [3]) | MIC (Pseudomonas aeruginosa [4]) | MIC (Pseudomonas aeruginosa [5]) | MIC (Pseudomonas aeruginosa [6]) | MIC (Klebsiella pneumoniae [7]) | MIC (Klebsiella pneumoniae [8]) | MIC (Escherichia coli [9]) | MIC (Escherichia coli [10]) | MIC (Escherichia coli [11]) | MIC (Escherichia coli [12]) | MIC (Citrobacter freundii) | other results |
| --- | --- | --- | --- | --- | --- | --- | --- | --- | --- | --- | --- | --- | --- | --- | --- | --- | --- | --- | --- | --- | --- |
| CC1(C)[C@H](NC(=O)/C(=N\OCc2ccccc2)c2csc(N)n2)C(=O)N1S(=O)(=O)O | > 64 µg/mL | > 64 µg/mL | > 64 µg/mL | > 64 µg/mL | > 64 µg/mL | > 64 µg/mL | > 64 µg/mL | > 64 µg/mL | > 64 µg/mL | > 64 µg/mL | > 64 µg/mL | > 64 µg/mL | > 64 µg/mL | > 64 µg/mL | > 64 µg/mL | > 64 µg/mL | > 64 µg/mL | > 64 µg/mL | > 64 µg/mL | > 64 µg/mL | MIC (Enterobacter cloacae): > 64 µg/mL |
| Cn1cc(CO/N=C(\C(=O)N[C@@H]2C(=O)N(S(=O)(=O)O)C2(C)C)c2csc(N)n2)nn1 | > 64 µg/mL | 2 µg/mL (≈ 4.36 µM) | 0.125 µg/mL (≈ 0.273 µM) | 0.06 µg/mL (≈ 0.131 µM) | 0.125 µg/mL (≈ 0.273 µM) | 8 µg/mL (≈ 17.4 µM) | 8 µg/mL (≈ 17.4 µM) | 2 µg/mL (≈ 4.36 µM) | 64 µg/mL (≈ 140 µM) | 8 µg/mL (≈ 17.4 µM) | > 64 µg/mL | > 64 µg/mL | > 64 µg/mL | 8 µg/mL (≈ 17.4 µM) | > 64 µg/mL | 8 µg/mL (≈ 17.4 µM) | 2 µg/mL (≈ 4.36 µM) | 4 µg/mL (≈ 8.72 µM) | 4 µg/mL (≈ 8.72 µM) | 4 µg/mL (≈ 8.72 µM) | MIC (Enterobacter cloacae): 2 µg/mL (≈ 4.36 µM) |
| CC1(C)[C@H](NC(=O)/C(=N\OCc2ccc(C(=O)O)cc2)c2csc(N)n2)C(=O)N1S(=O)(=O)O | 32 µg/mL (≈ 64.3 µM) | 8 µg/mL (≈ 16.1 µM) | 0.06 µg/mL (≈ 0.121 µM) | ≤ 0.03 µg/mL | > 64 µg/mL | 4 µg/mL (≈ 8.04 µM) | 8 µg/mL (≈ 16.1 µM) | 2 µg/mL (≈ 4.02 µM) | 32 µg/mL (≈ 64.3 µM) | 2 µg/mL (≈ 4.02 µM) | > 64 µg/mL | > 64 µg/mL | > 64 µg/mL | 8 µg/mL (≈ 16.1 µM) | > 64 µg/mL | 2 µg/mL (≈ 4.02 µM) | 4 µg/mL (≈ 8.04 µM) | 8 µg/mL (≈ 16.1 µM) | 4 µg/mL (≈ 8.04 µM) | 2 µg/mL (≈ 4.02 µM) | MIC (Enterobacter cloacae): 2 µg/mL (≈ 4.02 µM) |
| CC1(C)[C@H](NC(=O)/C(=N\OCc2cn(CC(=O)O)nn2)c2csc(N)n2)C(=O)N1S(=O)(=O)O | > 64 µg/mL | 2 µg/mL (≈ 3.98 µM) | 0.125 µg/mL (≈ 0.249 µM) | ≤ 0.03 µg/mL | > 64 µg/mL | 2 µg/mL (≈ 3.98 µM) | 4 µg/mL (≈ 7.96 µM) | 1 µg/mL (≈ 1.99 µM) | > 64 µg/mL | 1 µg/mL (≈ 1.99 µM) | > 64 µg/mL | > 64 µg/mL | > 64 µg/mL | 32 µg/mL (≈ 63.7 µM) | > 64 µg/mL | 8 µg/mL (≈ 15.9 µM) | 2 µg/mL (≈ 3.98 µM) | 32 µg/mL (≈ 63.7 µM) | 2 µg/mL (≈ 3.98 µM) | 2 µg/mL (≈ 3.98 µM) | MIC (Enterobacter cloacae): 1 µg/mL (≈ 1.99 µM) |
| CC1(C)[C@H](NC(=O)/C(=N\OCc2cn(CC3CC3)nn2)c2csc(N)n2)C(=O)N1S(=O)(=O)O | 64 µg/mL (≈ 128 µM) | > 64 µg/mL | 1 µg/mL (≈ 2.01 µM) | ≤ 0.03 µg/mL | > 64 µg/mL | 32 µg/mL (≈ 64.2 µM) | 32 µg/mL (≈ 64.2 µM) | 16 µg/mL (≈ 32.1 µM) | 64 µg/mL (≈ 128 µM) | 16 µg/mL (≈ 32.1 µM) | > 64 µg/mL | > 64 µg/mL | > 64 µg/mL | 32 µg/mL (≈ 64.2 µM) | > 64 µg/mL | 16 µg/mL (≈ 32.1 µM) | 16 µg/mL (≈ 32.1 µM) | 16 µg/mL (≈ 32.1 µM) | 16 µg/mL (≈ 32.1 µM) | 8 µg/mL (≈ 16 µM) | MIC (Enterobacter cloacae): 8 µg/mL (≈ 16 µM) |
| C[C@H]1[C@H](NC(=O)/C(=N\OC(C)(C)C(=O)O)c2csc(N)n2)C(=O)N1S(=O)(=O)O [AZTREONAM] | ≤ 0.03 µg/mL | ≤ 0.03 µg/mL | ≤ 0.03 µg/mL | ≤ 0.03 µg/mL | 0.125 µg/mL (≈ 0.287 µM) | 0.125 µg/mL (≈ 0.287 µM) | ≤ 0.03 µg/mL | ≤ 0.03 µg/mL | 256 µg/mL (≈ 588 µM) | 16 µg/mL (≈ 36.7 µM) | 4 µg/mL (≈ 9.19 µM) | 0.5 µg/mL (≈ 1.15 µM) | 2 µg/mL (≈ 4.59 µM) | 32 µg/mL (≈ 73.5 µM) | 32 µg/mL (≈ 73.5 µM) | > 256 µg/mL | 8 µg/mL (≈ 18.4 µM) | 0.125 µg/mL (≈ 0.287 µM) | 0.125 µg/mL (≈ 0.287 µM) | 0.125 µg/mL (≈ 0.287 µM) |  |
| C[C@H]1[C@H](NC(=O)/C(=N\OCc2cn(C)nn2)c2csc(N)n2)C(=O)N1S(=O)(=O)O (relative stereo) | > 128 µg/mL | 1 µg/mL (≈ 2.25 µM) | 0.5 µg/mL (≈ 1.12 µM) | 0.125 µg/mL (≈ 0.281 µM) | 0.5 µg/mL (≈ 1.12 µM) | 2 µg/mL (≈ 4.5 µM) | 2 µg/mL (≈ 4.5 µM) | 1 µg/mL (≈ 2.25 µM) | > 128 µg/mL | > 128 µg/mL | > 128 µg/mL | > 128 µg/mL | > 128 µg/mL | > 128 µg/mL | > 128 µg/mL | > 128 µg/mL | 4 µg/mL (≈ 9 µM) | 4 µg/mL (≈ 9 µM) | 4 µg/mL (≈ 9 µM) | 4 µg/mL (≈ 9 µM) | MIC (Enterobacter cloacae): 1 µg/mL (≈ 2.25 µM) |
| CCN(CC)CC.C[C@H]1[C@H](NC(=O)/C(=N\OCc2ccc(C(=O)N/N=C/c3ccc4ccccc4c3O)cc2)c2csc(N)n2)C(=O)N1S(=O)(=O)O | 8 µg/mL | 1 µg/mL | 1 µg/mL | ≤ 0.03 µg/mL | 0.06 µg/mL | 8 µg/mL | 8 µg/mL | 2 µg/mL | > 64 µg/mL | 32 µg/mL | 16 µg/mL | 16 µg/mL | 16 µg/mL | > 64 µg/mL | > 64 µg/mL | 64 µg/mL | 64 µg/mL | 0.25 µg/mL | 4 µg/mL | 8 µg/mL | MIC (Enterobacter cloacae): 4 µg/mL |
